In patent US11370774B2, “Substituted benzofuran, benzopyrrole, benzothiophene, and structurally related complement inhibitors” (BioCryst Pharmaceuticals, Inc., priority 2018, dated 2022):

Each compound was assayed against Factor D (Homo sapiens (Human), UniProt P00746) (assay: Factor D esterolytic assay (Z-Lys-SBzl substrate, DTNB, 405 nm)). Settings: Z-Lys-SBzl 1.29 mM, pH 7.5, 10% DMSO, tested a minimum of three times, read-out: Measured Ki (IC50) Value for Compounds: IC50.
Assay type: biochemical
Outline: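 Human Factor D ([…]) with 1.29 mM Z-Lys-SBzl in 100 mM HEPES, 500 mM NaCl, pH 7.5, 10% DMSO; substrate added immediately or after room-temperature preincubation. Released thiol reacted with DTNB, rate followed at 405 nm for 600 sec, 690 nm background subtracted. IC50 from percent inhibition versus uninhibited rate, n≥3.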

Chain of Factor D (P00746 26-253): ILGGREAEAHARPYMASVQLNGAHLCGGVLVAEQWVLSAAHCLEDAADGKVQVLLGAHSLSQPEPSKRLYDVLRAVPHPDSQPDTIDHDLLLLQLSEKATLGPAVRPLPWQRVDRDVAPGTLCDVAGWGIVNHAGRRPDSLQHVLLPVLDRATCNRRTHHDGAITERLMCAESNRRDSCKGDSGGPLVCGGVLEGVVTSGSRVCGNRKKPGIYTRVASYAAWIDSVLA

Row | Compound | IC50 [µM]
1 | NCc1coc2c(-c3cc(COc4ccccc4CC(=O)O)cc4ccoc34)cccc12 [Compound 38f, 2-(2-((3′-(aminomethyl)-[7,7′-bibenzofuran]-5-yl)methoxy)phenyl)acetic acid] | < 1
2 | CC(C)(C)c1ccc(CC(=O)O)c(OCc2cc(-c3cccc(CN)c3)c3occc3c2)c1 [Compound 317f, 2-(2-((7-(3-(aminomethyl)phenyl)benzofuran-5-yl)methoxy)-4-(tert-butyl)phenyl)acetic acid] | < 1
3 | COCc1cc2cc(COc3cc(C(C)=O)ccc3CC(=O)O)cc(-c3ccnc(CN)c3F)c2o1 [Compound 530c, 2-(4-acetyl-2-((7-(2-(aminomethyl)-3-fluoropyridin-4-yl)-2-(methoxymethyl)benzofuran-5-yl)methoxy)phenyl)acetic acid] | < 1
4 | Cc1cc(CC(=O)O)c(OCc2cc(-c3cccc(CN)c3)c3occc3c2)cc1C [Compound 276f, 2-(2-((7-(3-(aminomethyl)phenyl)benzofuran-5-yl)methoxy)-4,5-dimethylphenyl)acetic acid] | < 1
5 | Cc1ccc(CC(=O)O)c(OCc2cc(-c3ccnc(CN)c3F)c3occ(C(F)(F)F)c3c2)c1 [Compound 343e, 2-(2-((7-(2-(aminomethyl)-3-fluoropyridin-4-yl)-3-(trifluoromethyl)benzofuran-5-yl)methoxy)-4-methylphenyl)acetic acid] | < 1
6 | NCc1cccc(-c2cc(COc3ccc(F)cc3CC(=O)O)c(F)c3ccoc23)c1F [Compound 387b, 2-(2-((7-(3-(aminomethyl)-2-fluorophenyl)-4-fluorobenzofuran-5-yl)methoxy)-5-fluorophenyl)acetic acid] | < 1
7 | NCc1ccc(-c2cc(COc3ccccc3CC(=O)O)cc3ccoc23)s1 [Compound 206c, 2-(2-((7-(5-(aminomethyl)thiophen-2-yl)benzofuran-5-yl)methoxy)phenyl)acetic acid] | < 1
8 | CCc1ccc(CC(=O)O)c(OCc2cc(-c3ccnc(CN)c3)c3occc3c2)c1 [Compound 371c, 2-(2-((7-(2-(aminomethyl)pyridin-4-yl)benzofuran-5-yl)methoxy)-4-ethylphenyl)acetic acid] | < 1
9 | NCc1cccc(-c2cc(COc3ccccc3CC(=O)O)cn3ccnc23)c1 [Compound 102g, 2-(2-((8-(3-(aminomethyl)phenyl)imidazo[1,2-a]pyridin-6-yl)methoxy)phenyl)acetic acid] | < 1
10 | CC(=O)NC(C(=O)O)c1ccccc1OCc1cc(-c2cccc(CN)c2)c2occc2c1 (stereo not drawn) [Compound 222f, 2-acetamido-2-(2-((7-(3-(aminomethyl)phenyl)benzofuran-5-yl)methoxy)phenyl)acetic acid] | < 1
11 | NCc1cccc(-c2cc(C(=O)Nc3ccccc3CC(=O)O)nc3[nH]ccc23)c1 [Compound 14d, 2-(2-(4-(3-(aminomethyl)phenyl)-1H-pyrrolo[2,3-b]pyridine-6-carboxamido)phenyl)acetic acid] | 1 to 10
12 | COc1ccc(CC(=O)O)c(OCc2cc(-c3ccnc(CN)c3F)c3occc3c2F)c1 [Compound 385d, 2-(2-((7-(2-(aminomethyl)-3-fluoropyridin-4-yl)-4-fluorobenzofuran-5-yl)methoxy)-4-methoxyphenyl)acetic acid] | < 1
13 | NCc1nccc(-c2cc(COc3ccccc3CC(=O)O)cc3cc(C(F)(F)F)oc23)c1F [Compound 240d, 2-(2-((7-(2-(aminomethyl)-3-fluoropyridin-4-yl)-2-(trifluoromethyl)benzofuran-5-yl)methoxy)phenyl)acetic acid] | < 1
14 | NCc1cccc(-c2cc(COc3ccccc3CC(=O)O)cc3cc(CCO)oc23)c1F [Compound 179b, 2-(2-((7-(3-(aminomethyl)-2-fluorophenyl)-2-(2-hydroxyethyl)benzofuran-5-yl)methoxy)phenyl)acetic acid] | < 1
15 | Cc1nc2cc(COc3ccccc3CC(=O)O)cc(-c3cccc(CN)c3)c2o1 [Compound 91h, 2-(2-((7-(3-(aminomethyl)phenyl)-2-methylbenzo[d]oxazol-5-yl)methoxy)phenyl)acetic acid] | < 1
